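These data come from cells grown in 96-well plates and exposed to compound for 48 hours at five concentrations. The concentration for 50% growth inhibition is given as GI50.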 Calls of active or inactive are those of the source. Cut-off read from the data, not from the text of the source: active = GI50 up to about 1.1 µM and inactive = higher.
Columns and labels:
Experiment in all cases: NCI tumour cell line growth inhibition, 48 h
[1] = tested on: NCI-H522
[2] = tested on: SN12C
[3] = tested on: PC-3
[4] = tested on: DU-145
[5] = tested on: MDA-MB-435
[6] = tested on: SF-268
[7] = tested on: HL-60
[8] = tested on: HCT-116
[9] = tested on: UACC-257
[10] = tested on: SK-OV-3
[11] = tested on: MOLT-4
[12] = tested on: OVCAR-8
[13] = tested on: ACHN
[14] = tested on: K562
[15] = tested on: SK-MEL-28
[16] = tested on: HCT-15
[17] = tested on: Malme-3M
[18] = tested on: CAKI-1
[19] = tested on: MDA-N

Row | Structure (SMILES) | GI50 [1] | GI50 [2] | GI50 [3] | GI50 [4] | GI50 [5] | GI50 [6] | GI50 [7] | GI50 [8] | GI50 [9] | GI50 [10] | GI50 [11] | GI50 [12] | GI50 [13] | GI50 [14] | GI50 [15] | GI50 [16] [µM] | GI50 [17] | GI50 [18] | GI50 [19]
1 | O=C(NCCCN(CCCCN(CCCNC(=O)C(F)(F)F)Cc1ccc2ccccc2c1)Cc1ccc2ccccc2c1)C(F)(F)F | 8.93 µM (inactive) | > 100 µM (inactive) | 6.95 µM (inactive) | > 100 µM (inactive) | 1.9 µM (inactive) | > 100 µM (inactive) | 0.74 µM (active) | 4.45 µM (inactive) | 2.28 µM (inactive) | > 100 µM (inactive) | 5.28 µM (inactive) | > 100 µM (inactive) | > 100 µM (inactive) | 2.48 µM (inactive) | 2.32 µM (inactive) | 6.12 |  |  | 
2 | COc1ccc(OC)c([N+](=O)[O-])c1-c1nc2sc(C)c(C)n2c1/C=N/N=C(N)N | 41.8 µM (inactive) | > 100 µM (inactive) | 40.8 µM (inactive) | > 100 µM (inactive) | 43.1 µM (inactive) | 45.6 µM (inactive) | 25.6 µM (inactive) | > 100 µM (inactive) | > 100 µM (inactive) |  | 13.9 µM (inactive) | > 100 µM (inactive) | > 100 µM (inactive) | 33.3 µM (inactive) | 54.5 µM (inactive) | > 100 | 60.7 µM (inactive) | > 100 µM (inactive) | 
3 | COc1ccc(-c2[nH]c(-c3ccc(OC)cc3)c(-c3ccccn3)c2-c2ccccn2)cc1 |  | 52.2 µM (inactive) | 44 µM (inactive) | > 100 µM (inactive) | 21.7 µM (inactive) | > 100 µM (inactive) | 32.4 µM (inactive) | > 100 µM (inactive) | 40.2 µM (inactive) | > 100 µM (inactive) | 34.7 µM (inactive) | 50 µM (inactive) | 74 µM (inactive) | 25.5 µM (inactive) |  | 26.1 | 21.1 µM (inactive) | > 100 µM (inactive) | > 100 µM (inactive)
4 | Cc1ccc(O)c(-c2cscn2)c1 |  | 35.2 µM (inactive) | 39.8 µM (inactive) |  | 52.6 µM (inactive) |  | 1.81 µM (inactive) | 30.4 µM (inactive) | 73.1 µM (inactive) | 32.6 µM (inactive) | 35.1 µM (inactive) | 42.9 µM (inactive) | 32 µM (inactive) | 52 µM (inactive) |  | 31.6 | > 100 µM (inactive) | 39.3 µM (inactive) | 40.2 µM (inactive)
5 | CCOC(=O)/C(=C\n1c(=O)sc2ccccc21)C(=O)c1ccccc1 | 48 µM (inactive) | > 100 µM (inactive) | > 100 µM (inactive) | > 100 µM (inactive) | > 100 µM (inactive) | > 100 µM (inactive) | 33.5 µM (inactive) | > 100 µM (inactive) | > 100 µM (inactive) | > 100 µM (inactive) | > 100 µM (inactive) | > 100 µM (inactive) | > 100 µM (inactive) | 44.3 µM (inactive) | > 100 µM (inactive) | > 100 | > 100 µM (inactive) | 25.4 µM (inactive) | 
6 | Cc1ccc(-c2cc[n+]3c(n2)oc2ccccc23)cc1 | 5.98 µM (inactive) | > 100 µM (inactive) |  | 51.8 µM (inactive) | 24.7 µM (inactive) | 43.9 µM (inactive) | 10.8 µM (inactive) | 29.8 µM (inactive) | 18.8 µM (inactive) | 33.6 µM (inactive) | 10.8 µM (inactive) | 21.2 µM (inactive) | 28.6 µM (inactive) | 4.84 µM (inactive) | 22.1 µM (inactive) | > 100 | 13.2 µM (inactive) | 41.5 µM (inactive) | 31.6 µM (inactive)
7 | COc1cc(OC)c(-c2oc3ccccc3c(=O)c2O)c(OC)c1 | 2.75 µM (inactive) | > 100 µM (inactive) | 5.69 µM (inactive) |  | 0.889 µM (active) | > 41.3 µM (inactive) | 2.43 µM (inactive) | 3.76 µM (inactive) | > 91.6 µM (inactive) | 5.94 µM (inactive) | 3.52 µM (inactive) | 10.4 µM (inactive) | > 29 µM (inactive) | 2.7 µM (inactive) | > 22.8 µM (inactive) | 2.99 | 2.86 µM (inactive) | 5.74 µM (inactive) | 0.867 µM (active)
8 | N#CC(c1ccccc1)N(CCOCCOCCN(C(=O)c1cccc2ccccc12)C(C#N)c1ccccc1)C(=O)c1cccc2ccccc12 (centres undefined) |  | > 100 µM (inactive) | > 100 µM (inactive) | > 100 µM (inactive) | > 100 µM (inactive) | > 100 µM (inactive) | 31.7 µM (inactive) | 9.55 µM (inactive) | > 100 µM (inactive) | > 100 µM (inactive) | 8.15 µM (inactive) | > 100 µM (inactive) | > 100 µM (inactive) | 42.4 µM (inactive) | > 100 µM (inactive) | > 100 | > 100 µM (inactive) | > 100 µM (inactive) | > 100 µM (inactive)
9 | Cc1ccc(S(=O)(=O)N(CC(O)COc2ccccc2)c2c(F)cccc2F)cc1 (centres undefined) |  | 21.1 µM (inactive) | 14.3 µM (inactive) | 24.9 µM (inactive) | 15.4 µM (inactive) | 17.1 µM (inactive) | 29.4 µM (inactive) |  | 21.8 µM (inactive) | 18.5 µM (inactive) | 28.3 µM (inactive) | 17 µM (inactive) | 17.3 µM (inactive) | 37.3 µM (inactive) | 16.3 µM (inactive) | 16.1 | 21 µM (inactive) | 14.3 µM (inactive) | 15.8 µM (inactive)
10 | O=C(NCP(=O)(O)O)c1cccnc1 [(NICOTINAMIDOMETHYL)PHOSPHONIC ACID] |  | > 100 µM (inactive) | > 100 µM (inactive) | > 100 µM (inactive) | > 100 µM (inactive) |  | > 100 µM (inactive) | > 100 µM (inactive) | > 100 µM (inactive) | > 100 µM (inactive) | > 100 µM (inactive) | > 100 µM (inactive) | > 100 µM (inactive) | > 100 µM (inactive) | > 100 µM (inactive) | > 100 |  | > 100 µM (inactive) | > 100 µM (inactive)
11 | N#C[C@H]1C(=O)C(c2nc3ccccc3[nH]2)S[C@H]1c1ccccc1 (some centres undefined) | 21.2 µM (inactive) | 20 µM (inactive) |  | 45.1 µM (inactive) | 35 µM (inactive) |  | 25.4 µM (inactive) | 27.4 µM (inactive) | 63.2 µM (inactive) | 47.1 µM (inactive) | 33.7 µM (inactive) | 43.2 µM (inactive) | 20 µM (inactive) | 35.2 µM (inactive) | 54.8 µM (inactive) | 38 | 29.9 µM (inactive) | 38.6 µM (inactive) | 
12 | [O-][S+](CC1(O)CCCCC1)c1ccccc1 (centres undefined) | > 100 µM (inactive) | > 100 µM (inactive) | > 100 µM (inactive) | > 100 µM (inactive) |  | > 100 µM (inactive) | > 100 µM (inactive) | > 100 µM (inactive) | > 100 µM (inactive) | > 100 µM (inactive) | > 100 µM (inactive) | > 100 µM (inactive) | > 100 µM (inactive) | > 100 µM (inactive) | > 100 µM (inactive) | > 100 | > 100 µM (inactive) | > 100 µM (inactive) | 
13 | COc1ccc(-c2cc(-c3ccccc3)nc3c2CC(=O)Nc2ccccc2-3)cc1OC | > 76.7 µM (inactive) | 1.26 µM (inactive) | > 100 µM (inactive) | > 100 µM (inactive) | > 100 µM (inactive) | 0.933 µM (active) |  |  | > 100 µM (inactive) | 5.74 µM (inactive) | > 100 µM (inactive) | 0.125 µM (active) | 4.67 µM (inactive) | 1.45 µM (inactive) | > 100 µM (inactive) | > 100 |  | > 100 µM (inactive) | 
14 | Brc1ccc2c(-c3csc(-c4c[nH]c5ccccc45)n3)c[nH]c2c1 | 17.3 µM (inactive) | 17.3 µM (inactive) | 15.6 µM (inactive) | 18.8 µM (inactive) | 14.9 µM (inactive) | 18.3 µM (inactive) |  | 14.7 µM (inactive) | 22.8 µM (inactive) | 18.9 µM (inactive) |  | 18.2 µM (inactive) | 15.7 µM (inactive) |  | 14.9 µM (inactive) |  | 16.9 µM (inactive) | 15.8 µM (inactive) | 
15 | COc1ccc(-c2nc(O)c3ccccc3n2)c(OC)c1 |  | > 100 µM (inactive) | > 100 µM (inactive) | > 100 µM (inactive) | > 100 µM (inactive) | > 100 µM (inactive) |  | > 100 µM (inactive) | > 100 µM (inactive) | > 100 µM (inactive) | > 100 µM (inactive) | > 100 µM (inactive) | > 100 µM (inactive) |  |  | > 100 | > 100 µM (inactive) | > 100 µM (inactive) | > 100 µM (inactive)
16 | OC(CCNCc1ccccc1)c1ccc2ccccc2c1 (centres undefined) | 18.7 µM (inactive) | 29.1 µM (inactive) | 20.3 µM (inactive) | 18.3 µM (inactive) | 23 µM (inactive) | 18.9 µM (inactive) | 19.5 µM (inactive) | 22.4 µM (inactive) | 18 µM (inactive) |  | 31.1 µM (inactive) | 23.3 µM (inactive) | 18.3 µM (inactive) | 21.6 µM (inactive) | 18.4 µM (inactive) | 20.5 | 22 µM (inactive) | 21.8 µM (inactive) | 
